Where a name gives a salt, the structure may show the parent alone. Read-outs that look alike come from different tables or passages of the source.
Molecular target: T1, human recombinant KDM1A (LSD1)/CoRest (Homo sapiens, UniProt O60341)
T1 construct: made in house; host or cells: E. coli
Assay: Assay of enzyme inhibition of KDM1A (LSD1), Amplex UltraRed/peroxidase coupled
Type: biochemical
Conditions: 15 min preincubation, 4.5 μM mono-methylated H3-K4 peptide, range classes
Procedure: The experiments were performed using a mono-methylated H3-K4 peptide containing 21 amino acids (custom synthesis done by Thermo Scientific) as substrate and in a 50 mM TRIS, pH 8, 0.05 mg/ml BSA buffer.
The demethylase activity was estimated under aerobic conditions and at RT by measuring the release of H2O2 produced during the catalytic process by the Amplex® UltraRed detection system coupled with peroxidase assay. Briefly, a fixed amount of KDM1A/CoRest complex was incubated at RT for 15 minutes in the absence and/or the presence of various concentrations of inhibitor (e.g. from 0 to 100 μM, depending on the inhibitor strength) and of Amplex® UltraRed detection system coupled with peroxidase assay. The inhibitors were tested twice in duplicates at each concentration. […] The conversion of the Amplex® Ultra Red reagent to resorufin was monitored in continuous by fluorescence (excitation at 540 nm, emission at 590 nm) using a microplate reader (Infinite 200, Tecan). Arbitrary units were used to measure the level of H2O2 produced in the absence and/or in the presence of inhibition. The maximum demethylase activity of KDM1A/CoRest was obtained in the absence of inhibitors and corrected for background fluorescence in the absence of KDM1A/CoRest. The IC50 was calculated using GraphPad Software.

[1] = read-out: IC50 [μM], KDM1A inhibition assay
[2] = IC50 [μM], KDM1A inhibition assay

IC50 [1] | SMILES | IC50 [2]
1 to 5 µM | CC(C)[C@@]1(N)C[C@H]1c1ccccc1 (relative stereo) [Example A-7, trans-1-isopropyl-2-phenyl-cyclopropanamine hydrochloride] | 
 | CC[C@@]1(N)C[C@H]1c1cccc(F)c1 (relative stereo) [Example A-20, trans-1-ethyl-2-(3-fluorophenyl)cyclopropanamine hydrochloride] | < 0.1 µM
 | CC[C@@]1(N)C[C@H]1c1cccc(Cl)c1 (relative stereo) [Example A-21, trans-1-ethyl-2-(3-chlorophenyl)-cyclopropanamine hydrochloride] | < 0.1 µM
 | CC[C@@]1(N)C[C@H]1c1cccc(Br)c1 (relative stereo) [Example A-22, trans-1-ethyl-2-(3-bromophenyl)-cycloproanamine hydrochloride] | < 0.1 µM
< 0.1 µM | CC[C@@]1(N)C[C@H]1c1ccc(NC(=O)c2cccc(-c3ccccc3)c2)cc1 (relative stereo) [Example A-35] | 
< 0.1 µM | CC[C@@]1(N)C[C@H]1c1ccc(NC(=O)Cc2ccccc2)cc1 (relative stereo) [Example A-39, N-[4-[(trans-2-amino-2-ethyl-cyclopropyl]phenyl]-2-phenyl-acetamide hydrochloride] | 
< 0.1 µM | CC[C@@]1(N)C[C@H]1c1cccc(N=[N+]=[N-])c1 (relative stereo) [Example A-49, trans-2-(3-Azidophenyl)-1-ethyl-cyclopropanamine hydrochloride] | 
 | CC[C@@]1(N)C[C@H]1c1ccc(Br)c(F)c1 (relative stereo) [Example A-50, trans-2-(4-bromo-3-fluoro-phenyl)-1-ethyl-cyclopropanamine hydrochloride] | < 0.1 µM
< 0.1 µM | N[C@@]1(CCc2ccccc2)C[C@@H]1c1cccc(Br)c1 (relative stereo) [Example A-51, trans 2-(3-bromophenyl)-1-phenethyl-cyclopropanamine hydrochloride] | 
0.1 to 1 µM | N[C@]1(Cc2ccc3ccccc3c2)C[C@H]1c1ccc(F)cc1 (relative stereo) [Example A-54, trans-2-(4-fluorophenyl)-1-(2-naphthylmethyl)cyclo-propanamine hydrochloride] | 
0.1 to 1 µM | N[C@]1(Cc2ccc3ccccc3c2)C[C@H]1c1ccc(Cl)cc1 (relative stereo) [Example A-55, trans-2-(4-chlorophenyl)-1-(2-naphthylmethyl)cyclo-propanamine hydrochloride] | 
0.1 to 1 µM | N[C@]1(Cc2ccc3ccccc3c2)C[C@H]1c1cccc(Cl)c1 (relative stereo) [Example A-56, trans-2-(3-chlorophenyl)-1-(2-naphthylmethyl)cyclo-propanamine hydrochloride] | 
0.1 to 1 µM | N[C@]1(Cc2ccc3ccccc3c2)C[C@H]1c1cccc(Br)c1 (relative stereo) [Example A-57, trans-2-(3-bromophenyl)-1-(2-naphthylmethyl)cyclo-propanamine hydrochloride] | 
< 0.1 µM | N[C@]1(CCc2ccccc2)C[C@H]1c1ccc(Cl)cc1 (relative stereo) [Example A-58, trans-2-(4-chlorophenyl)-1-phenethyl-cyclopropanamine hydrochloride] | 
0.1 to 1 µM | N[C@]1(CCc2ccccc2)C[C@H]1c1ccc(F)cc1 (relative stereo) [Example A-59, trans-2-(4-fluorophenyl)-1-phenethyl-cyclopropanamine hydrochloride] | 
0.1 to 1 µM | N[C@]1(Cc2ccccc2)C[C@H]1c1ccc(F)cc1 (relative stereo) [Example A-60, trans-1-benzyl-2-(4-fluorophenyl)cyclo-propanamine] | 
0.1 to 1 µM | N[C@]1(Cc2ccccc2)C[C@H]1c1ccc(Cl)cc1 (relative stereo) [Example A-61, trans-1-benzyl-2-(4-chlorophenyl)cyclo-propanamine hydrochloride] | 
0.1 to 1 µM | N[C@]1(CCc2ccccc2)C[C@H]1c1ccc(Br)cc1 (relative stereo) [Example A-62, trans 2-(4-bromophenyl)-1-phenethyl-cyclopropanamine 2,2,2-trifluoroacetic acid] | 
< 0.1 µM | CC[C@@]1(N)C[C@H]1c1ccc(NC(=O)c2ccc(-c3ccccc3)c(NC3CCN(C)CC3)c2)cc1 (relative stereo) [Example A-66, N-[4-(trans-2-amino-2-ethyl-cyclopropyl)phenyl]-3-[(1-methyl-4-piperidyl)amino]-4-phenyl-benzamide dihydrochloride] | 
< 0.1 µM | CC[C@@]1(N)C[C@H]1c1ccc(NC(=O)Cc2ccc([N+](=O)[O-])cc2)cc1 (relative stereo) [Example A-69, N-[4-trans-[2-amino-2-ethyl-cyclopropyl]phenyl]-2-(4-nitrophenyl) acetamide hydrochloride] | 
0.1 to 1 µM | CC[C@@]1(N)C[C@H]1c1cccc(NC(=O)c2ccccc2)c1 (relative stereo) [Example A-93, N-[3-[trans-2-amino-2-ethyl-cyclopropyl]phenyl] benzamide hydrochloride] | 
< 0.1 µM | CC[C@@]1(N)C[C@H]1c1ccc(NC(=O)Cc2cccc3ccccc23)c(F)c1 (relative stereo) [Example A-94, N-[4-[trans-2-amino-2-ethyl-cyclopropyl]-2-fluoro-phenyl]-2-(1-naphthyl) acetamide hydrochloride] | 
0.1 to 1 µM | CC[C@@]1(N)C[C@H]1c1ccc(NC(=O)c2ccc(N3CCN(C)CC3)cc2)c(F)c1 (relative stereo) [Example A-96, N-[4-[trans-2-amino-2-ethyl-cyclopropyl]-2-fluoro-phenyl]-4-(4-methylpiperazin-1-yl)benzamide 2,2,2-trifluoroacetic acid] | 
< 0.1 µM | CC[C@@]1(N)C[C@H]1c1ccc(NC(=O)c2ccc(C3CCN(C)CC3)cc2)cc1 (relative stereo) [Example A-100, N-[4-[trans-2-amino-2-ethyl-cyclopropyl]phenyl]-4-(1-methyl-4-piperidyl)benzamide 2,2,2-trifluoroacetic acid] | 
< 0.1 µM | CC[C@@]1(N)C[C@H]1c1ccc(NC(=O)c2ccc(-c3ccncc3)cc2)cc1 (relative stereo) [Example A-102, N-[4-(trans-2-amino-2-ethyl-cyclopropyl]phenyl)-4-(4-pyridyl) benzamide dihydrochloride] | 
< 0.1 µM | N[C@]1(c2ccccc2)C[C@H]1c1ccc(NC(=O)c2cccc(Cl)c2)cc1 (relative stereo) [Example A-103, N-[4-(trans-2-amino-2-phenyl-cyclopropyl]phenyl]-3-chloro-benzamide hydrochloride] | 
< 0.1 µM | N[C@]1(c2ccccc2)C[C@H]1c1ccc(NC(=O)Cc2cccc3ccccc23)cc1 (relative stereo) [Example A-104, N-[4-(trans-2-amino-2-phenyl-cyclopropyl)phenyl]-2-(1-naphthyl) acetamide hydrochloride] | 
< 0.1 µM | N[C@]1(c2ccccc2)C[C@H]1c1ccc(NC(=O)Cc2ccccc2)cc1 (relative stereo) [Example A-105, N-[4-(trans-2-amino-2-phenyl-cyclopropyl)phenyl]-2-phenyl-acetamide hydrochloride] | 
< 0.1 µM | N[C@]1(c2ccccc2)C[C@H]1c1ccc(NC(=O)c2cccc(-c3ccccc3)c2)cc1 (relative stereo) [Example A-106, N-[4-(trans-2-amino-2-phenyl-cyclopropyl)phenyl]-3-phenyl-benzamide 2,2,2-trifluoroacetic acid] | 

SMILES | IC50 [1] | IC50 [2]
CC[C@@]1(N)C[C@H]1c1ccc(F)cc1 (relative stereo) [Example A-16, trans-1-ethyl-2-(4-fluorophenyl)cyclopropanamine hydrochloride] | 1 to 5 µM | 
CC[C@@]1(N)C[C@H]1c1ccc(Cl)cc1 (relative stereo) [Example A-17, trans-1-ethyl-2-(4-chlorophenyl)cyclopropanamine; hydrochloride] | 0.1 to 1 µM | 
CC[C@@]1(N)C[C@H]1c1cccc(C(F)(F)F)c1 (relative stereo) [Example A-18, trans-1-ethyl-2-[3-(trifluoromethyl)phenyl]cyclo-propanamine hydrochloride] | 0.1 to 1 µM | 
CC[C@@]1(N)C[C@H]1c1ccc(C(F)(F)F)cc1 (relative stereo) [Example A-19, trans-1-ethyl-2-[4-(trifluoromethyl)phenyl]cyclo-propanamine hydrochloride] | 0.1 to 1 µM | 
CC[C@@]1(N)C[C@H]1c1cccc(OC)c1 (relative stereo) [Example A-23, trans-1-ethyl-2-[3-methoxyphenyl]cyclopro-panamine hydrochloride] | 0.1 to 1 µM | 
CC[C@@]1(N)C[C@H]1c1ccccc1F (relative stereo) [Example A-25, trans-1-ethyl-2-(2-fluorophenyl)cyclopropanamine hydrochloride] | 0.1 to 1 µM | 
CC[C@@]1(N)C[C@H]1c1ccccc1Cl (relative stereo) [Example A-26, trans-1-ethyl-2-(2-chlorophenyl)-cyclopropanamine hydrochloride] | 0.1 to 1 µM | 
CC[C@@]1(N)C[C@H]1c1ccccc1Br (relative stereo) [Example A-27, trans-1-ethyl-2-(2-bromophenyl)-cyclopropanamine hydrochloride] | 0.1 to 1 µM | 

From patent US9944589B2, “Cycloproplyamine derivatives useful as inhibitors of histone demethylases KDM1A” (Istituto Europeo de Oncologia S.r.L., priority 2012, dated 2018)
